In patent US9604981B2, “IP receptor agonist heterocyclic compounds” (Novartis AG, priority 2013, dated 2017):

Biological target: T1, IP receptor (Homo sapiens, UniProt P43119)
T1 construct: expressed in transfected cells; host or cells: CHO cells (CHO-IP)
Experiment: cAMP accumulation in CHO cells stably expressing the IP receptor (AlphaScreen)
Assay type: cell-based
Conditions: 1 hour at room temperature
Experimental: Activity of compounds at the IP receptor (IP receptor) is assessed by measuring cAMP accumulation in CHO cells stably expressing the IP receptor (CHO-IP) using the PerkinElmer AlphaScreen assay. This technology measures the endogenous production of cAMP, in a non-radioactive luminescence proximity homogenous assay. A biological reaction occurs between streptavidin coated donor beads, biotinylated cAMP and anti-cAMP acceptor beads, bringing the donor and acceptor beads close enough together so that upon excitation a fluorescence signal is produced. On production of endogenous cAMP, competition between the biotinylated cAMP and cellular-derived cAMP causes a reduction in the fluorescent signal. The reduction in signal is proportional to the amount of cAMP being produced, thus it is possible to quantify the amount of cAMP being produced on stimulation with agonist.
Test and reference compounds are prepared at 100× [final] in 100% DMSO, and diluted 1:3 using a Biomek Fx (Beckman Coulter). This is followed by an intermediate dilution to give 5× [final] in assay buffer (HBSS containing 5 mM HEPES, 0.1% (w/v) BSA). […] The assay plate is then incubated at room temperature in the dark, for 60 minutes with gentle shaking, and read on the Envision plate reader (Perkin Elmer). […]

T1 sequence (P43119 whole entry): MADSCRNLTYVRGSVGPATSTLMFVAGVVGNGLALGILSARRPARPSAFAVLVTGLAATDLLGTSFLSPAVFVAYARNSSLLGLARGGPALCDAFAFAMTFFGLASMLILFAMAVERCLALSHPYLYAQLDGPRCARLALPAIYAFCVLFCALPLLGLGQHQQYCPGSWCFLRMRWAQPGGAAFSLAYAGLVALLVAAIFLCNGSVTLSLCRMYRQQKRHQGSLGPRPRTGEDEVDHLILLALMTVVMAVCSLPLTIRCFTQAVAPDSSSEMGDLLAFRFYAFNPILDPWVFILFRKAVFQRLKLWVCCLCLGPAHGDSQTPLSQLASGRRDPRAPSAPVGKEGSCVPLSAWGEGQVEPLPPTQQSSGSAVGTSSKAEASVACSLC

EC50: 0.455 nM
Compound: Cc1ccc(-c2cc3c(nc2-c2ccc(C)cc2)CCCN3CCCCCCC(=O)O)cc1 [Example 1, 7-(6,7-Di-p-tolyl-3,4-dihydro-1,5-naphthyridin-1(2H)-yl)heptanoic acid]
